# Test results reported in patent US9802962B2, “Tricyclic pyrone compounds reduce amyloid beta aggregates” (priority 2013, dated 2017).
# What was measured:
# MC65 neuroblastoma cells = test: MC65 protection assay; format: cell-based; conditions: protection of MC65 cells from death caused by intracellular Aβ; for EC50: read-out: effective concentrations for 50% cell survival (EC50)
# Experimental: Employing medium-throughput cell-based MC65 protection assay to screen over one hundred TP compounds, seven TP compounds that protect MC65 neuroblastoma cells from death caused by intracellular Aβ have been identified. […] The EC50 values for CP2, TP70, and TP101 are 120, 80, and 70 nM, respectively.
# ACAT = ACAT inhibition; format: biochemical; conditions: read-out: half maximal inhibitory concentration (IC50), ACAT
# Excerpt: (§1) It has been reported that an induction of cholesterol efflux resulting in a reduction of Aβ formation/deposition in vitro and in vivo (Kim, et al., J Alzheimers Dis, 2009, 16:121-131). For additional Detail, see the attached manuscript entitled, “Inhibition of Acyl-CoA: Cholesterol Acyltransferase (ACAT), Overexpression of Cholesterol Transporter Gene, and Protection of Amyloid β (Aβ) Oligomers-Induced Neuronal Cell Death by Tricylic Pyrone Molecules” which is incorporated herein.
# 5×FAD mice [1] = conditions: reported in Hong, et al., J Neurochem, 2009; cited from earlier work
# 5×FAD mice [2] = test: In vivo efficacy in 5×FAD mice; conditions: 5×FAD mice
# Experimental: FIGS. 6A-6E. 2-month-old 5×FAD mice were treated with TP70 or vehicle for 6 weeks as described in the text. Four cortical sections evenly distributed through the cerebrum were taken from one hemisphere of each mouse (6 mice in each treatment group) and fluorescently stained with the amyloid dye FSB (blue) and the nuclear dye propidium iodide (PI, red). A: Representative sections that show the PI stain. B: Representative sections that only show the FSB stain. C: Fluorescent staining was objectively quantified by LSC. […] E: A representative Western blot containing the soluble fractions of three mice of each group was analyzed for soluble Aβ dimer (see ref 59 for the method).
# Although the mechanism of neuron loss in Alzheimer's disease (AD) remains elusive, it is associated with cerebral accumulation of Aβ42. The 5×FAD mouse model of amyloid deposition expresses five familial AD (FAD) mutations that are additive in driving Aβ42 overproduction.
# [3] = tested on: ABCA1 cholesterol transporter gene; test: Increase of ABCA1 cholesterol transporter gene; format: cell-based
# Excerpt: as §1
# [4] = log P by octanol/water partition; format: physicochemical
# [5] = Plasma and brain concentrations after i.v. administration in mice; format: in vivo
# Experimental: FIGS. 3A-3B. FIG. 3A. CP2 and TP70 plasma and brain concentrations following i.v. injection in mice (n=3). FIG. 3B. […] The drug concentration was determined using HPLC and mass spectrometry.
# HPLC/mass spectrometry were employed to quantify CP2 and TP70 in the plasma and brain after i.v. administration in mice. The CP2 concentration was 200-300 μM in the mouse brain between 0.5 and 2 h following 25 mg/kg i.v. administration (FIG. 3A). Similarly, TP70 concentration reached 190 μM in plasma at 5 min and 160 μM in brain at 2 h following 25 mg/Kg i.v. administration (FIGS. 3A and 3B).
smiles,measurement,setting,value
Cc1cc2c(c(=O)o1)C=C1CCC(C(C)CNCc3c[nH]cn3)CC1O2 (centres unmarked) [TP36],EC50 values (in words),MC65 neuroblastoma cells,nanomolar range
Cc1cc2c(c(=O)o1)C=C1CCC(C(C)CNCc3ccc(O)c4ccccc34)CC1O2 (centres unmarked) [TP54],EC50 values (in words),MC65 neuroblastoma cells,nanomolar range
Cc1cc2c(c(=O)o1)C=C1CCC(C(C)CNCc3ccc(CO)cc3)CC1O2 (centres unmarked) [TP82],EC50 values (in words),MC65 neuroblastoma cells,nanomolar range
Cc1cc2c(c(=O)o1)C=C1CC[C@H](C(C)Cn3cnc(N)c4ncnc3-4)C[C@@H]1O2 (some centres unmarked) [CP2],IC50,ACAT,1200 nM
same,EC50,MC65 neuroblastoma cells,120 nM
same,soluble and insoluble Aβ aggregates in vivo,5×FAD mice [1],reduce soluble and insoluble Aβ aggregates in vivo
same,cerebral amyloid load,5×FAD mice [2],substantially reduce
same,drug toxicity during the course of treatment,5×FAD mice [2],no apparent drug toxicity
same,"histopathology, hematological counts, and blood chemistry at necropsy",5×FAD mice [2],No abnormalities
same,levels of toxic Aβ dimers,5×FAD mice [2],substantially reduce
same,EC50,[3],900 nM
same,log P,[4],2.20
same,CNS penetration,"[5]; i.v., mice",good CNS penetration
same,brain concentration,"[5]; mouse brain, between 0.5 and 2 h, 25 mg/kg i.v.",200 to 300 µM
CC(=O)OCCc1cc2c(c(=O)o1)C=C1CC[C@H](C(C)Cn3cnc(N)c4ncnc3-4)C[C@@H]1O2 (some centres unmarked) [TP4],EC50 values (in words),MC65 neuroblastoma cells,nanomolar range
Cc1cc2c(c(=O)o1)C=C1CCC(C(C)CNCc3ccc(O)c(F)c3)CC1O2 (centres unmarked) [TP101],EC50 values (in words),MC65 neuroblastoma cells,nanomolar range
same,EC50,MC65 neuroblastoma cells,70 nM
